Assay results: US20160223554A1, “METHODS FOR DIAGNOSIS, PROGNOSIS AND METHODS OF TREATMENT” (priority 2011, published 2016)

Key:
AML blasts [1] = test: SCNP signaling and apoptosis nodes in AML BMMC (Example 4, Study No. 2); type: cell-based, human
AML blasts [2] = test: SCNP phospho-flow signaling nodes in AML PBMC (Example 2, Study No. 1); type: cell-based, human; settings: for Mean Value of CRs: CR patients; for Mean Value of CRs / Mean Value of NRs: Study No. 1; for Mean Value of NRs: NR patients
Method: Frozen cells are thawed in a 37° C. water bath and gently resuspended in the vial and transferred to the 15 mL conical tube. The 15 mL tube is centrifuged at 930 RPM (200×g) for 8 minutes at room temperature. The supernatant is aspirated and the pellet is gently resuspended in 1 mL media A. The cell suspension is filtered through a 70 um cell strainer into a new 15 mL tube. The cell strainer is rinsed with 1 mL media A and another 12 ml of media A into the 15 mL tube. The cells are mixed into an even suspension. A 20 μL aliquot is immediately removed into a 96-well plate containing 180 μL PBS+4% FBS+CD45 Alexa 700+PI to determine cell count and viability post spin. After the determination, the 15 mL tubes are centrifuged at 930 RPM (200×g) for 8 minutes at room temperature. The supernatant is aspirated and the cell pellet is gently resuspended in 4 mL PBS+4 μL Amine Aqua and incubated for 15 min in a 37° C. incubator. 10 mL RPMI+1% FBS is added to the cell suspension and the tube is inverted to mix the cells. The 15 mL tubes are centrifuged at 930 RPM (200×g) for 8 minutes at room temperature. The cells are resuspended in Media A at the desired cell concentration (1.25×10^6/mL). For samples with low numbers of cells (<18.5×10^6), the cells are resuspended in up to 15 mL media. For samples with high numbers of cells (>18.5×10^6), the volume is raised to 10 mL with media A and the desired volume is transferred to a new 15 mL tube, and the cell concentration is adjusted to 1.25×10^6 cells/ml. 1.6 mL of the above cell suspension (concentration at 1.25×10^6 cells/ml) is transferred into wells of a multi-well plate. From this plate, 80 ul is dispensed into each well of a subsequent plate. The plates are covered with a lid (Nunc) and placed in a 37° C. incubator for 2 hours to rest.
A concentration for each stimulant that is five folds more (5×) than the final concentration is prepared using Media A as diluent. 5× stimuli are arrayed into wells of a standard 96 well v-bottom plate that correspond to the wells on the plate with cells to be stimulated.
Adding the stimulant: The cell plate(s) are taken out of the incubator and placed in a 37° C. water bath next to the pipette apparatus. The cell plate is taken from the water bath and gently swirled to resuspend any settled cells. With pipettor, the stimulant is dispensed into the cell plate and vortexed at “7” for 5 seconds. The deep well plate is put back into the water bath.
The plate is covered with foil sealer and incubated in a 37° C. water bath for 10 minutes. The plate is spun for 6 minutes at 2000 rpm at room temperature. The cells are aspirated using a 96 well plate aspirator (VP Scientific). The plate is vortexed to resuspend cell pellets in the residual volume. The pellet is ensured to be dispersed before the Methanol step (see cell permeabilization) or clumping will occur.
Cell Permeabilization: Permeability agent, for example methanol, is added slowly and while the plate is vortexing. To do this, the cell plate is placed on titer plate shaker and made sure it is secure. The plate is set to shake using the highest setting. A pipetter is used to add 0.6 mls of 100% methanol to the plate wells. The plate(s) are put on ice until this step has been completed for all plates. Plates are covered with a foil seal using the plate roller to achieve a tight fit. At this stage the plates can be stored at −80° C.
Cells are thawed if frozen. Cells are pelleted at 2000 rpm 5 minutes. Supernatant is aspirated with vacuum aspirator. Plate is vortexed on a “plate vortex” for 5-10 seconds. Cells are washed with 1 mL FACS buffer. Repeat the spin, aspirate and vortex steps as above. 50 μL of FACS/stain buffer with the desired, previously optimized, antibody cocktail is added to two rows of cells at a time and agitate the plate. The plate is covered and incubated in a shaker for 30 minutes at room temperature (RT). During this incubation, the compensation plate is prepared.

[3] = Fold metric, all patients, Study No. 2
[4] = Study No.2, patients less than 60 years old
[5] = Study No.2, patients with Secondary AML
[6] = Study No.2, patients age 60 and older
[7] = Total Phospho metric, Study No. 1, CRp patient included in NR group
[8] = read-out p-CREB, metric TotalPhospho
[9] = read-out p-Stat3, metric TotalPhospho
[10] = Study No.2, patients with De Novo AML
[11] = TotalPhospho metric, all patients, Study No. 2
[12] = read-out p-Stat1, metric TotalPhospho

Compound: COc1cc([C@@H]2c3cc4c(cc3[C@@H](O[C@@H]3O[C@@H]5CO[C@@H](C)O[C@H]5[C@H](O)[C@H]3O)[C@H]3COC(=O)[C@H]23)OCO4)cc(OC)c1O [Etoposide, reference compound]
- Mean Value of CRs, c-PARP (AML blasts [1]; [3]): 0.79
- Mean Value of NRs, c-PARP (AML blasts [1]; [3]): 0.25
- Mean Value of CRs, p-Chk2−,c-PARP+ Quad (AML blasts [1]; [4]): 21.17
- Mean Value of NRs, p-Chk2−,c-PARP+ Quad (AML blasts [1]; [4]): 9.58
- Mean Value of CRs, p-Chk2+,c-PARP− Quad (AML blasts [1]; [5]): 20.98
- Mean Value of CRs, p-Chk2−,c-PARP+ Quad (AML blasts [1]; [5]): 32.71
- Mean Value of NRs, p-Chk2+,c-PARP− Quad (AML blasts [1]; [5]): 55.02
- Mean Value of NRs, p-Chk2−,c-PARP+ Quad (AML blasts [1]; [5]): 13.24

Compound: OO [H2O2, reference compound]
- Mean Value of CRs (AML blasts [2]; read-out p-Lck, metric Fold): 0.42
- Mean Value of NRs (AML blasts [2]; read-out p-Lck, metric Fold): 0.12
- Mean Value of CRs (AML blasts [2]; read-out p-SLP 76, metric Fold): 1.35
- Mean Value of NRs (AML blasts [2]; read-out p-SLP 76, metric Fold): 0.08
- Mean Value of CRs, p-Akt (AML blasts [1]; [3]): 0.68
- Mean Value of NRs, p-Akt (AML blasts [1]; [3]): 0.91
- Mean Value of CRs, p-Akt Fold (AML blasts [1]; [6]): 0.45
- Mean Value of CRs, p-Akt TotalPhospho (AML blasts [1]; [6]): 0.84
- Mean Value of CRs, p-Plcγ2 TotalPhospho (AML blasts [1]; [6]): 1.19
- Mean Value of NRs, p-Akt Fold (AML blasts [1]; [6]): 0.88
- Mean Value of NRs, p-Akt TotalPhospho (AML blasts [1]; [6]): 1.33
- Mean Value of NRs, p-Plcγ2 TotalPhospho (AML blasts [1]; [6]): 1.86

Compound: CN[C@@H]1C[C@H]2O[C@@](C)([C@@H]1OC)n1c3ccccc3c3c4c(c5c6ccccc6n2c5c31)C(=O)NC4 [Stautospotine]
- Mean Value of CRs, c-PARP Fold (AML blasts [1]; [4]): 3.47
- Mean Value of NRs, c-PARP Fold (AML blasts [1]; [4]): 7.06

Compound: IL-6: cytokine modulator
- Mean Value of CRs, p-CREB (AML blasts [2]; [7]): 1.58
- Mean Value of CRs, p-Stat3 (AML blasts [2]; [7]): 1.08
- Mean Value of NRs, p-CREB (AML blasts [2]; [7]): 2.44
- Mean Value of NRs, p-Stat3 (AML blasts [2]; [7]): 1.81
- Mean Value of CRs (AML blasts [2]; [8]): 1.70
- Mean Value of NRs (AML blasts [2]; [8]): 2.43
- Mean Value of CRs (AML blasts [2]; [9]): 1.08
- Mean Value of NRs (AML blasts [2]; [9]): 1.84
- Mean Value of CRs, p-Stat1 (AML blasts [1]; [3]): −0.01
- Mean Value of CRs, p-Stat3 (AML blasts [1]; [3]): 0.12
- Mean Value of CRs, p-Stat5 (AML blasts [1]; [3]): 0.13
- Mean Value of NRs, p-Stat1 (AML blasts [1]; [3]): 0.26
- Mean Value of NRs, p-Stat3 (AML blasts [1]; [3]): 1.09
- Mean Value of NRs, p-Stat5 (AML blasts [1]; [3]): 0.55
- Mean Value of CRs, p-Stat1 Fold (AML blasts [1]; [4]): −0.02
- Mean Value of CRs, p-Stat3 Fold (AML blasts [1]; [4]): 0.13
- Mean Value of CRs, p-Stat3 TotalPhospho (AML blasts [1]; [4]): 1.77
- Mean Value of CRs, p-Stat5 Fold (AML blasts [1]; [4]): 0.11
- Mean Value of NRs, p-Stat1 Fold (AML blasts [1]; [4]): 0.3
- Mean Value of NRs, p-Stat3 Fold (AML blasts [1]; [4]): 1.67
- Mean Value of NRs, p-Stat3 TotalPhospho (AML blasts [1]; [4]): 4.10
- Mean Value of NRs, p-Stat5 Fold (AML blasts [1]; [4]): 0.58
- Mean Value of CRs, p-Stat1 Fold (AML blasts [1]; [10]): 0.00
- Mean Value of CRs, p-Stat1 TotalPhospho (AML blasts [1]; [10]): 1.06
- Mean Value of CRs, p-Stat3 TotalPhospho (AML blasts [1]; [10]): 1.7
- Mean Value of CRs, p-Stat5 Fold (AML blasts [1]; [10]): 0.12
- Mean Value of NRs, p-Stat1 Fold (AML blasts [1]; [10]): 0.19
- Mean Value of NRs, p-Stat1 TotalPhospho (AML blasts [1]; [10]): 1.67
- Mean Value of NRs, p-Stat3 TotalPhospho (AML blasts [1]; [10]): 3.22
- Mean Value of NRs, p-Stat5 Fold (AML blasts [1]; [10]): 0.47
- Mean Value of CRs, p-Stat3 (AML blasts [1]; [11]): 1.76
- Mean Value of NRs, p-Stat3 (AML blasts [1]; [11]): 2.98

Compound: IL-10: cytokine modulator
- Mean Value of CRs, p-Stat3 (AML blasts [2]; [7]): 0.72
- Mean Value of NRs, p-Stat3 (AML blasts [2]; [7]): 1.69
- Mean Value of CRs (AML blasts [2]; [12]): 0.20
- Mean Value of NRs (AML blasts [2]; [12]): 0.47
- Mean Value of CRs (AML blasts [2]; [9]): 0.82
- Mean Value of NRs (AML blasts [2]; [9]): 1.69
- Mean Value of CRs, p-Stat3 (AML blasts [1]; [3]): 0.08
- Mean Value of CRs, p-Stat5 (AML blasts [1]; [3]): 0.09
- Mean Value of NRs, p-Stat3 (AML blasts [1]; [3]): 0.39
- Mean Value of NRs, p-Stat5 (AML blasts [1]; [3]): 0.43
- Mean Value of CRs, p-Stat3 TotalPhospho (AML blasts [1]; [4]): 1.67
- Mean Value of NRs, p-Stat3 TotalPhospho (AML blasts [1]; [4]): 2.90
- Mean Value of CRs, p-Stat3 Fold (AML blasts [1]; [10]): 0.05
- Mean Value of CRs, p-Stat3 TotalPhospho (AML blasts [1]; [10]): 1.63
- Mean Value of CRs, p-Stat5 Fold (AML blasts [1]; [10]): 0.0
- Mean Value of NRs, p-Stat3 Fold (AML blasts [1]; [10]): 0.45
- Mean Value of NRs, p-Stat3 TotalPhospho (AML blasts [1]; [10]): 2.68
- Mean Value of NRs, p-Stat5 Fold (AML blasts [1]; [10]): 0.43

Compound: GM-CSF
- Mean Value of CRs, p-Stat3 (AML blasts [2]; [7]): 0.83
- Mean Value of NRs, p-Stat3 (AML blasts [2]; [7]): 1.23
- Mean Value of CRs (AML blasts [2]; [9]): 0.84
- Mean Value of NRs (AML blasts [2]; [9]): 1.24
- Mean Value of CRs, p-Stat3 TotalPhospho (AML blasts [1]; [4]): 1.51
- Mean Value of NRs, p-Stat3 TotalPhospho (AML blasts [1]; [4]): 2.35
- Mean Value of CRs, p-Stat3 TotalPhospho (AML blasts [1]; [10]): 1.51
- Mean Value of NRs, p-Stat3 TotalPhospho (AML blasts [1]; [10]): 2.22

Compound: EPO
- Mean Value of CRs, p-Stat1 (AML blasts [2]; [7]): 0.17
- Mean Value of CRs, p-Stat3 (AML blasts [2]; [7]): 0.64
- Mean Value of NRs, p-Stat1 (AML blasts [2]; [7]): 0.42
- Mean Value of NRs, p-Stat3 (AML blasts [2]; [7]): 1.23
- Mean Value of CRs (AML blasts [2]; [12]): 0.20
- Mean Value of NRs (AML blasts [2]; [12]): 0.42
- Mean Value of CRs (AML blasts [2]; [9]): 0.72
- Mean Value of NRs (AML blasts [2]; [9]): 1.23
